Key:
[1] = test system: NCI-H460; test: Cytotoxicity against human NCI-H460 cells at 30 uM after 48 hrs by MTT assay relative to control; format: functional
[2] = test system: MDA-MB-231; test: Cytotoxicity against human MDA-MB-231 cells at 30 uM after 48 hrs by MTT assay relative to control; format: functional
[3] = test system: A549; test: Cytotoxicity against human A549 cells after 72 hrs by MTT assay; format: functional, cell-based; details: A549, 72 h
[4] = test system: HCT-15; test: Cytotoxicity against human HCT15 cells at 30 uM after 48 hrs by MTT assay relative to control; format: functional
[5] = test system: HCT-116; test: Cytotoxicity against human HCT116 cells at 30 uM after 48 hrs by MTT assay relative to control; format: functional
[6] = test system: A549; test: Cytotoxicity against human A549 cells at 30 uM after 48 hrs by MTT assay relative to control; format: functional
[7] = test system: HCT-15; test: Cytotoxicity against human HCT15 cells after 72 hrs by MTT assay; format: functional, cell-based; details: HCT-15, 72 h
[8] = test system: HeLa; test: Cytotoxicity against human HeLa cells after 72 hrs by MTT assay; format: functional, cell-based
[9] = test system: HCT-116; test: Cytotoxicity against human HCT116 cells after 72 hrs by MTT assay; format: functional, cell-based; details: HCT-116, 72 h
[10] = test system: NCI-H460; test: Cytotoxicity against human NCI-H460 cells after 72 hrs by MTT assay; format: functional, cell-based; details: NCI-H460, 72 h
[11] = test system: HeLa; test: Cytotoxicity against human HeLa cells at 30 uM after 48 hrs by MTT assay relative to control; format: functional
[12] = test system: MDA-MB-231; test: Cytotoxicity against human MDA-MB-231 cells after 72 hrs by MTT assay; format: functional, cell-based; details: MDA-MB-231, 72 h

Row | Structure (SMILES) | Activity [1] [%] | Activity [2] [%] | IC50 [3] [µM] | Activity [4] [%] | Activity [5] [%] | Activity [6] [%] | IC50 [7] [µM] | IC50 [8] [µM] | IC50 [9] [µM] | IC50 [10] [µM] | Activity [11] [%] | IC50 [12] [µM]
1 | CCOC(=O)/C(=C(\N)C(=O)c1ccc(OC)cc1)C1C(=O)N(Cc2ccccc2)c2ccc(Cl)cc21 (stereo unspecified) | >50 | >50 | 3.25 | >50 | >50 | >50 | 3.15 | 3.72 | 3.82 | 3.32 | >50 | 6.96
2 | COC(=O)/C(=C(\N)C(=O)c1ccccc1)C1C(=O)N(Cc2ccccc2)c2ccc(C)cc21 (stereo unspecified) | >50 | >50 | 6.6 | >50 | >50 | >50 | 2.67 | 6.28 | 3.31 | 1.51 | >50 | 13.9
3 | CCOC(=O)/C(=C(\N)C(=O)c1ccccc1)C1C(=O)N(Cc2ccccc2)c2ccc(Br)cc21 (stereo unspecified) | >50 | >50 | 27.7 | >50 | >50 | >50 | 26.1 | 25.6 | 28.7 | 18.5 | >50 | 28.2
4 | CCOC(=O)/C(=C(\N)C(=O)c1ccccc1)C1C(=O)N(Cc2ccc(Br)cc2)c2ccccc21 (stereo unspecified) | >50 | >50 | 3.23 | >50 | >50 | >50 | 3.17 | 7.28 | 3.26 | 3.9 | >50 | 7.13
5 | O=c1[nH]cc(F)c(=O)[nH]1 [FLUOROURACIL] |  |  | 4.3 |  |  |  | 11.9 | 10.8 | 11.6 | 11.8 |  | 21.1
6 | COC(=O)/C(=C(\N)C(=O)c1ccccc1)C1C(=O)Nc2ccc(Br)cc21 (stereo unspecified) | >50 | >50 | 13 | >50 | >50 | >50 | 28.5 | 12.2 | 25.9 | 27.6 | >50 | 6.85
